The values that follow come from patent US20130158073A1, “Methods Of Diminishing Co-Abuse Potential” (priority 2004, published 2013).

The conditions of data set [1]: cited from earlier work.
A further data set has as its system male Sprague-Dawley rats. The following applies: coadministered with 10% w/v ethanol.
[2] abbreviates: co-administration of racemic methylphenidate and ethanol.

The structures appear in SMILES notation. Counter-ions that a name gives are not always drawn.

As to `CCOC(=O)C(c1ccccc1)C1CCCCN1` (centres unmarked) [Ethylphenidate], the “isomer excreted in the urine” value in data set [1] (setting [2]) is “primarily as the l-isomer”.

As for `COC(=O)[C@@H](c1ccccc1)[C@@H]1CCCCN1` [l-methylphenidate], the “transesterification after co-administration of racemic methylphenidate and ethanol” value in data set [1] (setting [2]) was “transesterifies enantioselectively to l-ethylphenidate”.

Consider `COC(=O)C(c1ccccc1)C1CCCCN1` (racemic) [d,l-MPH, d,l-methylphenidate HCl], for which, in the data set on male Sprague-Dawley rats (i.p.), the “potency compared to ethanol/cocaine for discriminative stimulus effects” value is recorded as “equipotent” and the “potency compared to ethanol/cocaine for response rate effects” value was “equipotent”. Further, in the data set on male Sprague-Dawley rats (i.p. 15 minutes before session), the “rates of response compared with saline control test sessions, at doses producing full ethanol/cocaine-lever responding” value is reported as “do not decrease rates of response”. Also, the “isomer excreted in the urine” value in data set [1] (setting [2]) is “primarily as the d-isomer”. Besides, the “ethylphenidate metabolite in plasma and urine” value in data set [1] (human subjects, co-administration of a single dose of methylphenidate and ethanol) is “ethylphenidate was also detected in plasma and urine”.

For `COC(=O)[C@H](c1ccccc1)[C@H]1CCCCN1` [d-MPH, dexmethylphenidate HCl], the “potency compared to ethanol/d,l-MPH” value in the data set on male Sprague-Dawley rats (i.p.) is recorded as “half as potent”.
